The values that follow come from BindingDB's records for doi:10.1021/acs.jmedchem.6b00965 (University of Iowa, 2017).

A short description of test [1]: Activation of BTN3A1 in human Vgamma9Vdelta2 T cells assessed as induction of interleukin 2 stimulated cell proliferation treated for 72 hrs measured on day 11 post last treatment by flow cytometry. (In general: Flow cytometry measures light scatter and fluorescence of single cells or particles in a stream.)
Test [2] in a line: Activation of BTN3A1 in human Vgamma9Vdelta2 T cells assessed as induction of T effector cells mediated K562 cell lysis preincubated with K562 cells for 2 hrs followed by T effector cell addition measured after 4 hrs.
Test [3] has as its target T1, Butyrophilin subfamily 3 member A1 (Homo sapiens, UniProt O00481). As to the kind of experiment: Activation of BTN3A1 in human Vgamma9Vdelta2 T cells assessed as induction of interleukin 2 stimulated cell proliferation treated for 72 hrs measured on day 11 post last treatment by flow cytometry.
Test [4] has as its target T1, Butyrophilin subfamily 3 member A1. As to the kind of experiment: Activation of BTN3A1 in human Vgamma9Vdelta2 T cells assessed as induction of T effector cells mediated K562 cell lysis preincubated with K562 cells for 2 hrs followed by T effector cell addition measured after 4 hrs.

SMILES strings stand for the structures.

T1 sequence (O00481 whole entry): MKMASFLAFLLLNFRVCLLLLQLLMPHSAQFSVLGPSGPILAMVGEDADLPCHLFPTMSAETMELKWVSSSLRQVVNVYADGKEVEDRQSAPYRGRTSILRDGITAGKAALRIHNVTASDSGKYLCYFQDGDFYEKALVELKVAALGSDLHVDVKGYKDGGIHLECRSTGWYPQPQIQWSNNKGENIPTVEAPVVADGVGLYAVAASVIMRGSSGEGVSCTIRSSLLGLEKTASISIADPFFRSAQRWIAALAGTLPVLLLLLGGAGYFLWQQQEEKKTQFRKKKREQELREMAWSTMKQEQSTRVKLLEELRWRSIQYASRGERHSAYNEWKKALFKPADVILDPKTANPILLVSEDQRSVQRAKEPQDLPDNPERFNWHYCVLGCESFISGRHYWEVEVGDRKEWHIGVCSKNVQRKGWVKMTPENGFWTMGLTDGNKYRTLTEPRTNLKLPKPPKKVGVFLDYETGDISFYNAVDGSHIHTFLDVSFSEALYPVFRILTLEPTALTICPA

As usually defined, the EC50 is the midpoint of the concentration-response curve. As for `COP(=O)(CC/C=C(\C)CO)CP(=O)(OC)OC` (stereo not drawn), the EC50 in test [1] and in test [2] was more than 100 µM in each case.
Turning to `C/C(=C\CCP(=O)(CP(=O)(OCOC(=O)C(C)(C)C)OCOC(=O)C(C)(C)C)OCOC(=O)C(C)(C)C)CO` (stereo not drawn), in test [2], the EC50 stood at 0.28 µM.
On the same count and under the same terms, the same measure for `CC(=CCCP(=O)(O)CP(=O)(O)O)CO`: 41 µM.
Take `CC(C)=CCCP(=O)(CP(=O)(OCOC(=O)C(C)(C)C)OCOC(=O)C(C)(C)C)OCOC(=O)C(C)(C)C` (stereo not drawn): the results for the concentration for a half-maximal effect (EC50) in test [1] and in test [2] were more than 100 µM and 7.3 µM, respectively.
On to `[C]C([C])=[C][C][C]P(=O)(O)[C]P(=O)(O)O`, for which the EC50 in test [3] and in test [4] was more than 100 µM in each case.
